Patent US10022376B2 (Pfizer Inc., priority 2014, dated 2018)
Structures can show the parent of a compound that is named as a salt.

Columns and labels:
[1] = system: rhIFNγ stimulated STAT-3 phosphorylation in the A549 human epithelial cell line; test: A549 Cell Assay: Inhibition of pSTAT3; assay type: cell-based; conditions: Homo sapiens; A549 cells
Summary of the method: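 A549 cells cultured 18 h were preincubated 1 h at 37° C with compound (0.3 nM to 10 μM, 0.1% DMSO) in DMEM with 0.2% BSA, then stimulated with 20 ng/mL rhIFNγ for 30 min. pSTAT3 Tyr705 in the lysates was measured by MSD immunoassay and expressed as percent inhibition.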

[2] = system: rhIL-2 stimulated STAT5 phosphorylation in isolated human T cells; test: Human T Cell Assay: Inhibition of pSTAT5; assay type: cell-based
Description: Human T Cell Assay: Inhibition of pSTAT5
An assay measuring the efficacy of JAK inhibitors on the functional response of recombinant human interleukin-2 (rhIL-2) stimulated STAT5 phosphorylation in isolated human T cells.
Human whole blood from individual donors was collected from the phlebotomy unit on-site. Peripheral venous blood (30-60 mL) from healthy volunteers of either sex was used as the source of T cells. T cell isolation from venous whole blood is routinely performed in a class II microbiological safety cabinet. Each sample was collected into between 3 and 6 10 mL Sodium Heparin Vacutainer tubes (BD #367874). The blood was poured into sterile 50 mL conicals (Corning #430828) and incubated with the T cell Rosette Sep Cocktail (Stemcell Technologies #15061) at 50 μL/mL antibody/blood ratio for 20 min. with shaking at room temperature. The blood/antibody mixture was then diluted 1:2 with PBS (Pfizer media prep)/2% FBS (Sigma #F4135) and 30 mL of the mixture was layered onto 15 mL Ficoll-Hypaque (GE Healthcare #17-1440-03) in 50 mL conical tubes. The tubes were then centrifuged at 1200×g for 20 min. at room temperature with no brake. Following centrifugation the T cells formed a buffy coat between the Ficoll-Hypaque and plasma layers. The plasma above the buffy coats was removed to within 5 mm of the buffy coat using a sterile Pasteur pipette. The buffy coats were then collected into fresh sterile 50 mL conical tubes containing 25 mL PBS/2% FBS (2 buffy coats per 50 mL conical). PBS/2% FBS was added to the buffy coat cells such that the final volume in the tube was 50 mL. The tubes were then centrifuged at 200×g for 15 min. at room temperature. The supernatant was discarded and the pellet re-suspended in 10-20 mL of DMEM (Pfizer media prep) Assay media/0.2% BSA (Miltenyi #130-091-376). A differential cell count was performed using a haemacytometer and cells were diluted to 1.1×10^6 T cells/ml in DMEM/0.2% BSA media. Compounds (10 mM-0.3 μM) were diluted with Hanks Balanced Salt Solution (HBSS) (Sigma #H6648) at 1:100 dilution. Immediately following cell isolation and compound dilution, 90 μl/well of T cells (˜1×10^6/ml) in assay medium (DMEM+0.2% BSA) was added to the VWR Deep well V bottom plate (#3906-520-300). 10 μl/well of compound (final concentration range of 10 μM-0.3 nM with 0.1% DMSO) or 0.1% DMSO in HBSS as controls was added to the appropriate wells. Plates were incubated for 1 hour at 37° C., 5% CO2 incubator. 10 μl of 3.3 μg/mL rhIL-2 (R&D Systems #202-IL) was added to the cells (300 ng/ml final assay concentration). Wells containing T cells, medium with 0.1% DMSO and no rhIL-2 were used as background controls. Plates were incubated for 15 min at 37° C. After rhIL-2 stimulation, 800 μL of cold PBS/0.1% BSA was added and the plates were centrifuged at 1400 rpm for 5 min at 4° C. Supernatant was aspirated and 100 μL of ice-cold MSD lysis buffer containing protease and phosphatase inhibitors from Phospho-STAT5a/b Tyr694 assay kit (Meso-Scale Discovery #K150IGD) was added to the cell pellet. Plates were shaken for 30 min. at 4° C. and then frozen overnight. The following day, cell lysates were assayed using the MSD ELISA kit protocol for detection of pSTAT5.
Data were collected and transformed into percent inhibition and calculated using the following formula: […]

JAK1 = JAK1 (Homo sapiens (Human), UniProt P23458); test: JAK Caliper Enzyme Assay at 1 mM ATP (JAK1); assay type: biochemical; conditions: Caliper assay at 1 mM ATP
JAK2 = JAK2 (Homo sapiens (Human), UniProt O60674); test: JAK Caliper Enzyme Assay at 1 mM ATP (JAK2); assay type: biochemical; conditions: Caliper assay at 1 mM ATP
JAK3 = JAK3 (Homo sapiens (Human), UniProt P52333); test: JAK Caliper Enzyme Assay at 1 mM ATP (JAK3); assay type: biochemical; conditions: Caliper assay at 1 mM ATP
TYK2 = TYK2 (Homo sapiens (Human), UniProt P29597); test: JAK Caliper Enzyme Assay at 1 mM ATP (TYK2); assay type: biochemical; conditions: Caliper assay at 1 mM ATP
Chain of TYK2 (P29597 whole entry): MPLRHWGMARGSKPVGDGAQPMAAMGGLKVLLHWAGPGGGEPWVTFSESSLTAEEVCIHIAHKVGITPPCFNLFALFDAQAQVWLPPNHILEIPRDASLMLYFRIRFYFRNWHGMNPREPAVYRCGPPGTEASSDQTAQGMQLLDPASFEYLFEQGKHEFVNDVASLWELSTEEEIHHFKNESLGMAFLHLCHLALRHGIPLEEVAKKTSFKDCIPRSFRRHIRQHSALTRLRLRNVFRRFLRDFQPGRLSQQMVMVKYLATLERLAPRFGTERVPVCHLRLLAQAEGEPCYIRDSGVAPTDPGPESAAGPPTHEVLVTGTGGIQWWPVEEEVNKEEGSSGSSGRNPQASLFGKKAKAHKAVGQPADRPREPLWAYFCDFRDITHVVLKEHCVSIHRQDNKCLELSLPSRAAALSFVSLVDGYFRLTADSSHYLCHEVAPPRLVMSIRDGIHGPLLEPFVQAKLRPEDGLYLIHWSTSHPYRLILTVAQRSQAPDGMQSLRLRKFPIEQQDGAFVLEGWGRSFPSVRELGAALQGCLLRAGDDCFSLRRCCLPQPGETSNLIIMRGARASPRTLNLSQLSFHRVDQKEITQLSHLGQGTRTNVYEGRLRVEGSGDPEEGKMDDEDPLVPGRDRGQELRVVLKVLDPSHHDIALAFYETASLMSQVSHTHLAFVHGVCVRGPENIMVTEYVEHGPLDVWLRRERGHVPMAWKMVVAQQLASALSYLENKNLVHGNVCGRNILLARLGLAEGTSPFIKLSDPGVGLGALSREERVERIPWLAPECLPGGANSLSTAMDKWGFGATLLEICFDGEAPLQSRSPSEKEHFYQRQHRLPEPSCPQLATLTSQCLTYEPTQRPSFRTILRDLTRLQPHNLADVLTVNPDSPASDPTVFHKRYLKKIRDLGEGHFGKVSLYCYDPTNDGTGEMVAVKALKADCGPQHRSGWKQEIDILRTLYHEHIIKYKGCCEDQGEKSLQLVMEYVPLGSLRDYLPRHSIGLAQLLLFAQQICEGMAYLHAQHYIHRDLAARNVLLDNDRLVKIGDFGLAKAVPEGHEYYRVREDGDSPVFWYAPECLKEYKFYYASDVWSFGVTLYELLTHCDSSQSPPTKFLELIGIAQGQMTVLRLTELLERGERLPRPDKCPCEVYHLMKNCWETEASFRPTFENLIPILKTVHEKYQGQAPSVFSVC

Chain of JAK3 (P52333 whole entry): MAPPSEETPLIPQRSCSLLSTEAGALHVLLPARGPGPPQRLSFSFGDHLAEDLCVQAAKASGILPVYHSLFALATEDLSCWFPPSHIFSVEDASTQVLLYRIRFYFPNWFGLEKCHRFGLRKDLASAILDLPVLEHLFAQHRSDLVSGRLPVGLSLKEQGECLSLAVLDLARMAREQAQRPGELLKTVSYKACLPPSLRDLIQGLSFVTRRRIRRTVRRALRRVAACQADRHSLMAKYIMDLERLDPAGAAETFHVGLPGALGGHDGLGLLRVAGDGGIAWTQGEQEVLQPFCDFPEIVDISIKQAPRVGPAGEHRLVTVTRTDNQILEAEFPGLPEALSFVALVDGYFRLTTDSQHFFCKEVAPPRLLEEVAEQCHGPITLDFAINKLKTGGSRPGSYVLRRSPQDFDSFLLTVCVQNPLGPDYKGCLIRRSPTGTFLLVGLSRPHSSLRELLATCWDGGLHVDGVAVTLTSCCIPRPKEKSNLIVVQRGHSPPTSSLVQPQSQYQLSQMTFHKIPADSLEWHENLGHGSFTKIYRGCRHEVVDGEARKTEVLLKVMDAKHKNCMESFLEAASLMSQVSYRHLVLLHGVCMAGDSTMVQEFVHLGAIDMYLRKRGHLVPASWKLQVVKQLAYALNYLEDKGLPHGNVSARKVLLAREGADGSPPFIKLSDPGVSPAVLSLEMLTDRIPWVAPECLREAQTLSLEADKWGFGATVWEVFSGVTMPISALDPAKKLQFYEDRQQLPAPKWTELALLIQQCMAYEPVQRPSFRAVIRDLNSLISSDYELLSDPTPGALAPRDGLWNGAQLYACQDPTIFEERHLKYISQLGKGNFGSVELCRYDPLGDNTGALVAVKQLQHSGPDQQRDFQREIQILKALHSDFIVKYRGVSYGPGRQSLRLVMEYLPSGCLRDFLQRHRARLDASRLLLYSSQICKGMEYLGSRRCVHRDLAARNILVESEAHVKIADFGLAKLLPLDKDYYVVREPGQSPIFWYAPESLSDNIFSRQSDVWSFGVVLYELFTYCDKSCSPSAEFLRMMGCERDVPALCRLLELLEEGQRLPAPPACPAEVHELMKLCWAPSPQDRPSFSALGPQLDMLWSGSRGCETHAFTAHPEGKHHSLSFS
Chain of JAK1 (P23458 whole entry): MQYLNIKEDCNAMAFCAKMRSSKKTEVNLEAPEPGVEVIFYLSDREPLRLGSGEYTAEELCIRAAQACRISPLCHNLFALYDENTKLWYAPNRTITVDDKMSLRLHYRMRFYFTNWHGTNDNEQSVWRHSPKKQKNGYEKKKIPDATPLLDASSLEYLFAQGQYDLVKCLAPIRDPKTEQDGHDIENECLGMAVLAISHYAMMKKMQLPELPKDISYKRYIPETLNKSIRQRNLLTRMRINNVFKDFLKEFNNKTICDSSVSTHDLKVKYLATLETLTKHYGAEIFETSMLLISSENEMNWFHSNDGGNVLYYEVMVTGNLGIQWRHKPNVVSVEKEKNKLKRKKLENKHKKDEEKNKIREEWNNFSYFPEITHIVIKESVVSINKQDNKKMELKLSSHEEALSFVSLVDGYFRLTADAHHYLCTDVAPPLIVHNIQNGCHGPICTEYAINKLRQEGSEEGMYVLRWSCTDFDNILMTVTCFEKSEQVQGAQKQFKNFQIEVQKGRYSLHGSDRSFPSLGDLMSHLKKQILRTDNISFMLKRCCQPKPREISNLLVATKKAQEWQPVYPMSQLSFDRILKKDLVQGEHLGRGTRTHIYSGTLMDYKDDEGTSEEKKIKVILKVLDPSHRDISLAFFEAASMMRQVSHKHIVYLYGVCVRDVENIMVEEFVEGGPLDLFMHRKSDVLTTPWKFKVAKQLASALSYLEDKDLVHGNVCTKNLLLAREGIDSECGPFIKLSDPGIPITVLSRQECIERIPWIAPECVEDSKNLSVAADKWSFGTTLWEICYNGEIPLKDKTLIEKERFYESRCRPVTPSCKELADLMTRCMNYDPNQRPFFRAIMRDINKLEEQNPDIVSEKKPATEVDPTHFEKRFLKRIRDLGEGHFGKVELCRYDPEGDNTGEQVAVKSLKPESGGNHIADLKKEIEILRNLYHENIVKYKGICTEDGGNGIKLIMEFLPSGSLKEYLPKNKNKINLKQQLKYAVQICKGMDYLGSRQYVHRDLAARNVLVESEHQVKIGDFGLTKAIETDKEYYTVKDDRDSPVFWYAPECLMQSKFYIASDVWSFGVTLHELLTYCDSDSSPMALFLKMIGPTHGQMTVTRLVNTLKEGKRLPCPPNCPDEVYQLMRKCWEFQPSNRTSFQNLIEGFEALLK
Chain of JAK2 (O60674 whole entry): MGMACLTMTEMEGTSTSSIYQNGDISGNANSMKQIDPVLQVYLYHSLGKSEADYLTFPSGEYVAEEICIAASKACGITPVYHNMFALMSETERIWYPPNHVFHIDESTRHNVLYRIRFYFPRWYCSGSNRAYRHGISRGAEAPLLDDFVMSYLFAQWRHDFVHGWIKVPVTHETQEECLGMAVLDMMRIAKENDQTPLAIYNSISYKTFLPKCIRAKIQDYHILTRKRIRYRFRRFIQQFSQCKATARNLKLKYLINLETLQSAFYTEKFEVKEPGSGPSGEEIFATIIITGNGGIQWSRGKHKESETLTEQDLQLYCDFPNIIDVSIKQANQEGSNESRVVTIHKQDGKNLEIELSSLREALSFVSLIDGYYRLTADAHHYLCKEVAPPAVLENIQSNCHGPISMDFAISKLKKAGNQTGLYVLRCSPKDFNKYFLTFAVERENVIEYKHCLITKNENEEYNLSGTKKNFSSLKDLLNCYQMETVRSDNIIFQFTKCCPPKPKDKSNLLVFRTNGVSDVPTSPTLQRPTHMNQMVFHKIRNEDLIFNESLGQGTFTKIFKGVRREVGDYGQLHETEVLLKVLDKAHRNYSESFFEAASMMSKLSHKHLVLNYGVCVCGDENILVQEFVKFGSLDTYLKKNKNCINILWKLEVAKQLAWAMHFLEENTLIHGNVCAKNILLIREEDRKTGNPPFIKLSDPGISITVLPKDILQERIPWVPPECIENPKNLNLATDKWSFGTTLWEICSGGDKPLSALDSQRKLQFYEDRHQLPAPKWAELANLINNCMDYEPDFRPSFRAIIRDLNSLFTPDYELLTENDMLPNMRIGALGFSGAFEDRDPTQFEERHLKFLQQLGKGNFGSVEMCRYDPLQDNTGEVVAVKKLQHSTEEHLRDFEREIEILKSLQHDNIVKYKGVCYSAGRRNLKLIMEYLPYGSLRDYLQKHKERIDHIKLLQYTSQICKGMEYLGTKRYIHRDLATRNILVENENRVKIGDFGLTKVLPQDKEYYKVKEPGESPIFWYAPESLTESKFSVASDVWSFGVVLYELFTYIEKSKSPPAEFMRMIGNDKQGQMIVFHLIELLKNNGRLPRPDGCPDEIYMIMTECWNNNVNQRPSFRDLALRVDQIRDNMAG

`CCc1cc(O)c(F)cc1-c1cc2[nH]nc(C(=O)NC)c2c(NCc2ccccc2N(C)S(C)(=O)=O)n1` [Example 19, 6-(2-ethyl-5-fluoro-4-hydroxyphenyl)-N-methyl-4-({2-[methyl(methylsulfonyl)amino]benzyl}amino)-1H-pyrazolo[4,3-c]pyridine-3-carboxamide] was tested, and the IC50 [1] was 11.9 nM and the IC50 [2] was 20.2 nM.

For `CNC(=O)c1n[nH]c2cc(-c3cc(F)c(O)cc3CC(F)(F)F)nc(NCc3ccccc3N(C)S(C)(=O)=O)c12` [Example 20, 6-[5-fluoro-4-hydroxy-2-(2,2,2-trifluoroethyl)phenyl]-N-methyl-4-({2-[methyl(methylsulfonyl)amino]benzyl}amino)-1H-pyrazolo[4,3-c]pyridine-3-carboxamide], the IC50 (JAK1) was 3.6 nM, the IC50 (JAK2) was 16.6 nM and the IC50 (JAK3) was 95.3 nM. For the same compound, the IC50 (TYK2) was 20.9 nM, the IC50 [1] was 18.8 nM and the IC50 [2] was 31.9 nM.

`CCc1cc(O)c(F)cc1-c1cc2[nH]nc(C(=O)NC)c2c(NCc2cc(O)ccc2N(C)S(C)(=O)=O)n1` [Example 31, 6-(2-Ethyl-5-fluoro-4-hydroxyphenyl)-4-({5-hydroxy-2-[methyl (methylsulfonyl)amino]benzyl}amino)-N-methyl-1H-pyrazolo[4,3-c]pyridine-3-carboxamide] showed an IC50 [1] of 74 nM and an IC50 [2] of 48.2 nM.

`CCc1cc(O)c(F)cc1-c1cc2[nH]nc(C(=O)Nc3ccc(C)nc3)c2c(NCc2ccccc2N(C)S(C)(=O)=O)n1` [Example 56, 6-(2-ethyl-5-fluoro-4-hydroxyphenyl)-4-({2-[methyl(methylsulfonyl)amino]benzyl}amino)-N-(6-methylpyridin-3-yl)-1H-pyrazolo[4,3-c]pyridine-3-carboxamide] was tested, and the IC50 [1] was 277 nM and the IC50 [2] was 53.4 nM.

`Cc1ccc(NC(=O)c2n[nH]c3cc(-c4cc(F)c(O)cc4CC(F)(F)F)nc(NCc4ccccc4N(C)S(C)(=O)=O)c23)cn1` [Example 76, 6-[5-Fluoro-4-hydroxy-2-(2,2,2-trifluoroethyl)phenyl]-4-({2-[methyl(methylsulfonyl)amino]-benzyl}amino)-N-(6-methylpyridin-3-yl)-1H-pyrazolo[4,3-c]pyridine-3-carboxamide] was tested, and the IC50 [1] was 325 nM and the IC50 [2] was 121 nM.

`CN(c1ccccc1CNc1nc(-c2cc(F)c(O)cc2CC(F)(F)F)cc2[nH]nc(C(N)=O)c12)S(C)(=O)=O` [Example 77, 6-[5-Fluoro-4-hydroxy-2-(2,2,2-trifluoroethyl)phenyl]-4-({2-[methyl(methylsulfonyl)amino]benzyl}amino)-1H-pyrazolo[4,3-c]pyridine-3-carboxamide] was tested, and the IC50 [1] was 32.9 nM and the IC50 [2] was 59.9 nM.

With `CN(c1ccc(O)cc1CNc1nc(-c2cc(F)c(O)cc2CC(F)(F)F)cc2[nH]nc(C(N)=O)c12)S(C)(=O)=O` [Example 92, 6-[5-Fluoro-4-hydroxy-2-(2,2,2-trifluoroethyl)phenyl]-4-({5-hydroxy-2-[methyl(methylsulfonyl)amino]benzyl}amino)-1H-pyrazolo[4,3-c]pyridine-3-carboxamide] the IC50 [1] was 398 nM and the IC50 [2] was 343 nM.

`CCc1cc(O)c(F)cc1-c1nc(NCc2ccccc2N(C)S(C)(=O)=O)c2c(C(=O)NC)n[nH]c2n1` [Example 93, 6-(2-Ethyl-5-fluoro-4-hydroxyphenyl)-N-methyl-4-((2-(N-methylmethylsulfonamido)benzyl)amino)-1H-pyrazolo[3,4-d]pyrimidine-3-carboxamide] gave an IC50 [1] of 31.9 nM and an IC50 [2] of 40.4 nM.

`CN(c1ccccc1CNc1nc(-c2cc(F)c(O)cc2CC(F)(F)F)nc2[nH]nc(C(N)=O)c12)S(C)(=O)=O` [Example 98, 6-(5-Fluoro-4-hydroxy-2-(2,2,2-trifluoroethyl)phenyl)-4-((2-(N-methylmethylsulfonamido)benzyl)amino)-1H-pyrazolo[3,4-d]pyrimidine-3-carboxamide] was tested, and the IC50 [1] was 724 nM and the IC50 [2] was 324 nM.

Compound `CCc1cc(O)c(F)cc1-c1cc2[nH]ncc2c(NCc2ccccc2N(C)S(C)(=O)=O)n1` [Example 131, N-[2-({[6-(2-Ethyl-5-fluoro-4-hydroxyphenyl)-1H-pyrazolo[4,3-c]pyridin-4-yl]amino}methyl)phenyl]-N-methylmethanesulfonamide] has an IC50 [1] of 7.4 nM and an IC50 [2] of 24.3 nM.

Work on `CCc1cc(O)c(F)cc1-c1cc2[nH]ncc2c(NCc2cc(C)ccc2N(C)S(C)(=O)=O)n1` [Example 132, N-[2-({[6-(2-ethyl-5-fluoro-4-hydroxyphenyl)-1H-pyrazolo[4,3-c]pyridin-4-yl]amino}methyl)-4-methylphenyl]-N-methylmethanesulfonamide hydrochloride] yielded an IC50 [1] of 256 nM and an IC50 [2] of 206 nM.

In the case of `CCc1cc(O)c(F)cc1-c1cc2[nH]ncc2c(NCc2cc(Cl)ccc2N(C)S(C)(=O)=O)n1` [Example 133, N-[4-chloro-2-({[6-(2-ethyl-5-fluoro-4-hydroxyphenyl)-1H-pyrazolo[4,3-c]pyridin-4-yl]amino}methyl)phenyl]-N-methylmethanesulfonamide hydrochloride], the IC50 [1] is reported as 10.1 nM and the IC50 [2] is reported as 34.7 nM.

`CCc1cc(O)c(F)cc1-c1cc2[nH]ncc2c(N(C)Cc2ccccc2N(CC)S(C)(=O)=O)n1` [Example 145, N-Ethyl-N-[2-({[6-(2-ethyl-5-fluoro-4-hydroxyphenyl)-1H-pyrazolo[4,3-c]pyridin-4-yl](methyl)amino}methyl)phenyl]methanesulfonamide hydrochloride] showed an IC50 [1] of 15.7 nM and an IC50 [2] of 157 nM.

`CCc1cc(O)c(F)cc1-c1cc2[nH]ncc2c(N(C)Cc2ccccc2N(C)S(C)(=O)=O)n1` [Example 146, N-[2-({[6-(2-Ethyl-5-fluoro-4-hydroxyphenyl)-1H-pyrazolo[4,3-c]pyridin-4-yl](methyl)amino}methyl)phenyl]-N-methylmethanesulfonamide hydrochloride] showed an IC50 [1] of 7.6 nM and an IC50 [2] of 62.3 nM.

For `CCc1cc(O)c(F)cc1-c1cc2[nH]nc(-c3nnc(C)[nH]3)c2c(NCc2ccccc2N(C)S(C)(=O)=O)n1` [Example 165, N-[2-({[6-(2-Ethyl-5-fluoro-4-hydroxyphenyl)-3-(5-methyl-4H-1,2,4-triazol-3-yl)-1H-pyrazolo[4,3-c]pyridin-4-yl]amino}methyl)phenyl]-N-methylmethanesulfonamide], the IC50 [1] was 567 nM and the IC50 [2] was 91.3 nM.

`Cc1ccc(-c2nnc(-c3n[nH]c4cc(-c5cc(F)c(O)cc5CC(F)(F)F)nc(NCc5ccccc5N(C)S(C)(=O)=O)c34)[nH]2)cn1` [Example 166, N-{2-[({6-[5-Fluoro-4-hydroxy-2-(2,2,2-trifluoroethyl)phenyl]-3-[5-(6-methylpyridin-3-yl)-4H-1,2,4-triazol-3-yl]-1H-pyrazolo[4,3-c]pyridin-4-yl}amino)methyl]phenyl}-N-methylmethanesulfonamide] showed an IC50 [1] of 697 nM and an IC50 [2] of 591 nM.

`CC(=O)N1CCc2[nH]c(-c3n[nH]c4nc(-c5cc(F)c(O)cc5CC(F)(F)F)nc(NCc5cc(O)ccc5N(C)S(C)(=O)=O)c34)nc2C1` [Example 170, N-{2-[({3-(5-Acetyl-4,5,6,7-tetrahydro-1H-imidazo[4,5-c]pyridin-2-yl)-6-[5-fluoro-4-hydroxy-2-(2,2,2-trifluoroethyl)phenyl]-1H-pyrazolo[3,4-d]pyrimidin-4-yl}amino)methyl]-4-hydroxyphenyl}-N-methylmethanesulfonamide] gave an IC50 [1] of 1360 nM and an IC50 [2] of 767 nM.
